Measurements reported in ChEMBL document CHEMBL1201862, “PubChem BioAssay data set” (2004).
The source made the active and inactive calls.

Experiments:
[1] = target: T1, Corticotropin-releasing factor receptor 2/Corticotropin-releasing factor-binding protein (Homo sapiens, UniProt P24387+Q13324); assay: Dose Response confirmation of uHTS hits for small molecule antagonists of the CRF-binding protein and CRF-R2 receptor complex.; format: functional; conditions: read-out: IC50_Mean
T1 sequence (Q13324 whole entry): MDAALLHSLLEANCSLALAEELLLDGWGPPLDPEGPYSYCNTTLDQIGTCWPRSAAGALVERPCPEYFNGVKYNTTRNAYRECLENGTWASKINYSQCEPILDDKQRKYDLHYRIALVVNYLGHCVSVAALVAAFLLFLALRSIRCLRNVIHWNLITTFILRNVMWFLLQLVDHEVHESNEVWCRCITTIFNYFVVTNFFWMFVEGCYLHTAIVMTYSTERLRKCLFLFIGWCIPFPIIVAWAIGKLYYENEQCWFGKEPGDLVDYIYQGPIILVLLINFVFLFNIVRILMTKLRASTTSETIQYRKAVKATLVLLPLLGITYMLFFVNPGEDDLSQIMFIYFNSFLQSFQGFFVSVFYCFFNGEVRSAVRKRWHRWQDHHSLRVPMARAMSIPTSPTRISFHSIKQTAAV
T1 sequence (P24387 whole entry): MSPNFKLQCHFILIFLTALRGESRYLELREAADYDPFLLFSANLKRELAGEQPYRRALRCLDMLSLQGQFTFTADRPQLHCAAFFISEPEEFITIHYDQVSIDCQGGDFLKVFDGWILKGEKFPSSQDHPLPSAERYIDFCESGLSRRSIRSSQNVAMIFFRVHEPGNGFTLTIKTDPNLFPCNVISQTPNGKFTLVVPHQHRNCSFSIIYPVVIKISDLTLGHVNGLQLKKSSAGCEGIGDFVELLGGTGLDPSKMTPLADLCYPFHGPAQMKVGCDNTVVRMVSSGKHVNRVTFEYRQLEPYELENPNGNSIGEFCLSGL

[2] = target: T1, Corticotropin-releasing factor receptor 2/Corticotropin-releasing factor-binding protein; assay: activators of CRF receptor 2 with binding protein – uHTS hits, confirmation (AID 602473); format: functional; conditions: read-out: EC50_Mean
Cytochrome P450 1A2 = target: T2, Cytochrome P450 1A2 (Homo sapiens, UniProt P05177);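 note: PubChem cytochrome P450 panel assay, CYP1A2 panel member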
T2 sequence (P05177 whole entry): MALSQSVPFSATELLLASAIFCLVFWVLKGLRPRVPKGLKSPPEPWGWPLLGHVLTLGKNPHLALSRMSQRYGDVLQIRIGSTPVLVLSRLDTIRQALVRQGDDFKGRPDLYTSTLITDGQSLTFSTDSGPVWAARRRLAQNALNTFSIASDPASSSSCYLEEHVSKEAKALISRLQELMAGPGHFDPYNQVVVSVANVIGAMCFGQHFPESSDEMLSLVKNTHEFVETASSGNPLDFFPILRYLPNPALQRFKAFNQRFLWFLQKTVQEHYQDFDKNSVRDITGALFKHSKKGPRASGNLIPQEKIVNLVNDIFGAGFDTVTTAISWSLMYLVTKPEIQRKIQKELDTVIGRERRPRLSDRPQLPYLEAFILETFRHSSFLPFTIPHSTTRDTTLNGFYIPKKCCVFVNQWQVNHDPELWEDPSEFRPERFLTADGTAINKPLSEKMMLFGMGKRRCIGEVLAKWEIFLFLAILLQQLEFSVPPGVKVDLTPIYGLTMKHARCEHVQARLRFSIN

Cytochrome P450 2C19 = Cytochrome P450 2C19 (Homo sapiens, UniProt P33261); assay: Cytochrome panel assay with activity outcomes. Panel member name: p450-cyp2c19 Compounds with AC50 equal or less than 10 uM are considered active; format: functional
Chain of Cytochrome P450 2C19 (P33261 whole entry): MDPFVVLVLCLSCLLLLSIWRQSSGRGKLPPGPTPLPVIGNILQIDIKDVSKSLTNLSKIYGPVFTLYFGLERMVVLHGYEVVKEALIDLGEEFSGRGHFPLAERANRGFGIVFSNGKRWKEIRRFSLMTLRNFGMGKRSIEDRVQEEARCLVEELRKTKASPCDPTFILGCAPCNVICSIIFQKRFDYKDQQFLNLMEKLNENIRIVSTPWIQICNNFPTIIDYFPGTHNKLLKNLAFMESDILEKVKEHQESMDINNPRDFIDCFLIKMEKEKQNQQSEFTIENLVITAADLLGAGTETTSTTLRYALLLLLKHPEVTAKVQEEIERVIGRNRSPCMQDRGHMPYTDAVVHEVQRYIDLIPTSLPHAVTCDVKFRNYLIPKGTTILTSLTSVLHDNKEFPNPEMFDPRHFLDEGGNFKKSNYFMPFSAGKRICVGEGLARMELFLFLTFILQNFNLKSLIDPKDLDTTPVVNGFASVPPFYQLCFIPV

[3] = Luminescence Cell-Based Dose Retest to Confirm Inhibitors of Cancer Stem Cells. [Related pubchem assays (depositor defined):AID2717, AID2721]; format: functional; conditions: Homo sapiens
H9c2 = assay: cells; format: functional, cell-based; conditions: Rattus norvegicus, H9c2, Myocardium;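 note: confirmatory concentration-response retest of ultra-high-throughput screening hits for modulation of myocardial damage; cell death induced by hydrogen peroxide oxidative stress; compound pretreatment for 60 min then peroxide exposure for 2 h; potency is for protecting the cells against peroxide damage rather than for killing them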
[4] = HEp-2 cell cytotoxicity, dose response, cytotoxicity control for RSV inhibitor project, HTS (AID 2410); format: functional; conditions: human respiratory syncytial virus
[5] = system: Streptococcus sp. 'group A'; assay: growth inhibition of control SK(-) GAS strain, dose response, counter-screen for streptokinase expression inhibitor project, luminescence, kanamycin, BacTiterGlo, confirmation (AID 1900); format: functional, organism-based
Streptokinase A = target: T3, Streptokinase A (Streptococcus pyogenes serotype M1, UniProt P10520); assay: S. pyogenes streptokinase expression inhibitors, potency, dose response, plasminogen activation absorbance, OD405 (AID 1914); format: functional, Streptococcus pyogenes M1 GAS;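 note: secreted streptokinase activity via plasminogen activation per viability signal from cell pellet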
T3 sequence (P10520 whole entry): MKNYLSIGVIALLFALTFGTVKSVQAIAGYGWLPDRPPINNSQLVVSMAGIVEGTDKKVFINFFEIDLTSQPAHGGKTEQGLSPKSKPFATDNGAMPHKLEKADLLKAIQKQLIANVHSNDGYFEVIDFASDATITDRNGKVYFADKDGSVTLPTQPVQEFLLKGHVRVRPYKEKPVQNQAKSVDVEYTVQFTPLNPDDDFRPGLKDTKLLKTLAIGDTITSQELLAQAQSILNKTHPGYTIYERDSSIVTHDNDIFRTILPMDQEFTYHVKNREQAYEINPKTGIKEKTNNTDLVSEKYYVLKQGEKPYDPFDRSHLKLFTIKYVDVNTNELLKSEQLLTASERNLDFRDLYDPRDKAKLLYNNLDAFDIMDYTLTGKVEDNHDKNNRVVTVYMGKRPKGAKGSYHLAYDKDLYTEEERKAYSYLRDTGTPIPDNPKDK

Streptococcus = assay: Group A Streptococcus viability loss, dose response, counter-screen for streptokinase expression inhibitor project, luminescence, BacTiterGlo (AID 1915); format: functional, organism-based;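 note: potency for reduction of bacterial viability or growth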
Cytochrome P450 2D6 = Cytochrome P450 2D6 (Homo sapiens, UniProt P10635);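 note: CYP2D6 member of a cytochrome P450 panel assay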
Chain of Cytochrome P450 2D6 (P10635 whole entry): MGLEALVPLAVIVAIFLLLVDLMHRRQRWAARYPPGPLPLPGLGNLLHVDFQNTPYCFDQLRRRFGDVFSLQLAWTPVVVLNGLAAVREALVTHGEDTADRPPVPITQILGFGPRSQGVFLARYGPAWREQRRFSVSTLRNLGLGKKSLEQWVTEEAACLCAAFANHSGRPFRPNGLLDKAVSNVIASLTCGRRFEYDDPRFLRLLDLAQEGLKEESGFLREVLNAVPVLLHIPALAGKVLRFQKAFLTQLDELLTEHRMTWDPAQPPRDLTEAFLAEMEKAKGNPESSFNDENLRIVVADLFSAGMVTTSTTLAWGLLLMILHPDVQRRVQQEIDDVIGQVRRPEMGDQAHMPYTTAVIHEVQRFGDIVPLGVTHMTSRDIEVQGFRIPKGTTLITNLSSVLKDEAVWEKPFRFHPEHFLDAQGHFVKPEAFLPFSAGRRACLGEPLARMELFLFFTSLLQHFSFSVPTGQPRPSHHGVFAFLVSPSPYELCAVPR

[6] = inhibitors of intracellular T. cruzi replication, confirmation, NIH3T3 host cells, beta-gal luminescence (AID 2044); format: functional, cell-based;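 note: intracellular parasites grown in NIH/3T3 mouse fibroblasts as host cells; luminescent beta-galactosidase reporter signal from transgenic T. cruzi replicating inside host cells; inhibitors lower the luminescence signal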
[7] = cytotoxicity toward NIH3T3 fibroblasts, dose response, counter-screen, cell-based, ATP luminescence, mouse fibroblasts (AID 2010); format: functional;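 note: cells exposed to compound for about 90 hours before reading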
[8] = Luminescence Cell-Based Dose Response HTS to Identify Activators of Luciferase Translation or Activity in H4 […] Cells. [Related pubchem assays: 1829 (Project Summary), 1814 (Primary HTS)]; format: functional
H4 = assay: Luminescence Cell-Based Dose Response HTS to Identify Activators of 5'UTR Stem-Loop Driven Prion Protein mRNA Translation in H4 Neuroglioblastoma Cells. [Related pubchem assays: 1829 (Project Summary), 1814 (Primary HTS)]; format: functional; conditions: Homo sapiens
Paired box protein Pax-8 = Paired box protein Pax-8 (Homo sapiens, UniProt Q06710); assay: inhibitors of PAX8-driven TPO luciferase reporter, dose response, RMG-I cells, cherry-pick (AID 687027); format: functional, cell-based;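 note: luciferase reporter driven by Pax8 target thyroperoxidase promoter measured by SteadyGlo luminescence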
Chain of Paired box protein Pax-8 (Q06710 whole entry): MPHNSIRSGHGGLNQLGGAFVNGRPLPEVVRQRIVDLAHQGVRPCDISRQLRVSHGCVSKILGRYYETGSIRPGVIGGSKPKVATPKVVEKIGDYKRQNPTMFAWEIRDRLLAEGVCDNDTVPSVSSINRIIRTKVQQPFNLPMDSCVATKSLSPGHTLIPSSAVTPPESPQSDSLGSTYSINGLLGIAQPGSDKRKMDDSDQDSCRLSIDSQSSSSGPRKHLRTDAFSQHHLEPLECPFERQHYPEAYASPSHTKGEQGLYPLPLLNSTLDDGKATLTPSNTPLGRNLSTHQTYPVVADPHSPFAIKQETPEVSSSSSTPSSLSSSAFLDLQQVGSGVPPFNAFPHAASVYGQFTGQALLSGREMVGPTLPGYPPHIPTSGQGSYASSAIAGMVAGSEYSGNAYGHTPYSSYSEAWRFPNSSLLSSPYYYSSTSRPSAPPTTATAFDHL

O=C(CSc1nc2ccccc2n1CCc1ccccc1)NC1CCS(=O)(=O)C1 (stereo not drawn)
IC50 [1]: > 47.1 µM (inactive)
EC50 [2]: > 53 µM (inactive)

COc1ccc(C(=O)N2CCC[C@@]3(CCN(Cc4ccccc4)C3)C2)cc1
AC50 (Cytochrome P450 1A2): 12.6 µM (inconclusive)

Cc1cnc(CNc2cc(-c3ccoc3)ncn2)cn1
AC50 (Cytochrome P450 1A2): 25.1 µM (inconclusive)

CCN(CCCNC(=O)C1CCN(S(=O)(=O)CC)CC1)c1cccc(C)c1
AC50 (Cytochrome P450 2C19; read-out: AC50): 39.8 µM (inconclusive)
AC50 (Cytochrome P450 1A2): 31.6 µM (inconclusive)

O=c1c(Cl)c(NCc2ccc(F)cc2)cnn1C12CC3CC(CC(C3)C1)C2
AC50 [3]: 0.913 µM (active)

O=C(c1cc(-c2cccnc2)nc2ccc(Br)cc12)N1CCN(c2ncccn2)CC1
IC50 (H9c2): > 79 µM (inactive)

COCCn1c(=O)c(-c2ccc(Cl)cc2)nc2cnc(N3CCOCC3)nc21
AC50 (Cytochrome P450 1A2): 1 µM (inconclusive)

c1ccc2sc(SCSc3nc4ccccc4s3)nc2c1
CC50 [4]: 29.5 µM (active)
EC50 [5]: > 150 µM (not active)
EC50 (Streptokinase A): > 150 µM (not active)
EC50 (Streptococcus): > 150 µM (not active)
AC50 (Cytochrome P450 2D6): 2.51 µM (inconclusive)

Brc1ccc(-c2noc(CCc3ccccc3)n2)cc1
CC50 [4]: 47.7 µM (active)

COc1ccc(CNC(=O)c2sc(=S)n(-c3ccc(OC)cc3)c2N)cc1
IC50 [1]: > 47.1 µM (inactive)
EC50 [2]: > 53 µM (inactive)

COc1ccc(-c2oc3c4c(cc(OC)c3c(=O)c2CC=C(C)C)OC(C)(C)C=C4)c(OC)c1
EC50 [6]: 2.08 µM (active)
EC50 [7]: > 60 µM (not active)
AC50 [3]: 6.2 µM (active)

c1cc2cc(-c3c(-c4ccc5c(c4)OCO5)noc3-c3ccsc3)ccc2[nH]1
CC50 [4]: 44.8 µM (active)
AC50 [3]: 1.69 µM (active)

COC(=O)[C@@H]1[C@@H]2C[C@H]3c4[nH]c5cc(OC)ccc5c4CCN3C[C@@H]2C[C@H](OC(=O)c2cc(OC)c(OC)c(OC)c2)[C@H]1OC
AC50 (Cytochrome P450 1A2): 15.8 µM (inconclusive)

N#C/C(=C\c1ccc(OCC(N)=O)cc1)c1ccccc1
CC50 [4]: 36.8 µM (active)

COc1ccc(CN(C(=O)c2nsc(Cl)c2Cl)C(C(=O)NC2CCCC2)c2ccc(OC)cc2)cc1 (stereo not drawn)
EC50 [2]: > 53 µM (inactive)

CC1Cc2cc(S(=O)(=O)N3CCCCC3C)ccc2N1C(=O)C1CCC1 (stereo not drawn)
CC50 [4]: 20.8 µM (active)

CC#CC(=O)N1CCC(C(=O)Nc2ccc(Oc3ccccc3)nc2)CC1
EC50 [8]: 25.4 µM (active)
EC50 (H4): 73 µM (active)

CC(=O)Nc1ccc(-c2csc(NC(=O)CCCc3cccs3)n2)cc1
AC50 [3]: 7.57 µM (active)

COC(=O)c1cc(NC(=O)c2cc3ccccc3o2)cc(C(=O)OC)c1
IC50 (H9c2): > 79 µM (inactive)

COC(=O)C1=C(C)N(c2ccc(OC)cc2)C(C)=C(C(=O)OC)C1c1ccccc1
IC50 [1]: > 47.1 µM (inactive)
EC50 [2]: > 53 µM (inactive)

Oc1ccc(C[C@H]2CN=C(S)N2CCc2cc(C(F)(F)F)cc(C(F)(F)F)c2)cc1
CC50 [4]: 28.9 µM (active)

Cn1cccc1C(=O)N1CCC2(CCCN(c3ccccc3)C2)CC1
AC50 (Cytochrome P450 1A2): 10 µM (inconclusive)

Cc1cccc(-c2noc(C(C)NC(=O)c3ccco3)n2)c1 (stereo not drawn)
IC50 [1]: > 47.1 µM (inactive)
EC50 [2]: > 53 µM (inactive)

COc1ccc(C(=O)COC(=O)Cc2nnc(O)c3ccccc23)c(OC)c1
IC50 (H9c2): > 79 µM (inactive)

Cc1c(-c2cccc(Cl)c2)nc2ccccc2c1C(=O)OCC(=O)Nc1ccc2c(c1)OCO2
CC50 [4]: 16.3 µM (active)
EC50 [6]: 2.22 µM (active)
EC50 [7]: > 60 µM (not active)

CCCCNc1c(-c2ccc(OC)c(SC3CCCCC3)c2)nc2cc(C)ccn12
EC50 [5]: 3.09 µM (active)
EC50 (Streptokinase A): 9.9 µM (active)
EC50 (Streptococcus): 10.1 µM (active)
AC50 [3]: 4.36 µM (active)

Cc1ccc(-n2nnnc2C(=Cc2ccc(N(C)C)cc2)c2nnnn2-c2ccc(C)cc2)cc1
AC50 (Cytochrome P450 2D6): 15.8 µM (inconclusive)
AC50 (Cytochrome P450 1A2): 12.6 µM (inconclusive)

CC(C)(C)C1COc2ccccc2N1C(=O)c1ccccc1Cl (stereo not drawn)
EC50 [2]: 11.3 µM (active)

Nc1ncnc(Nc2cccc(Cl)c2Cl)n1
CC50 [4]: 26.1 µM (active)

CCCN1CCc2c(sc(NC(=O)c3ccc(S(=O)(=O)N(C)c4ccccc4)cc3)c2C(N)=O)C1
EC50 [2]: 4.43 µM (active)

COc1ccc(/C=C(\C#N)C(=O)c2c(C)[nH]c3ccccc23)cc1OC
IC50 (H9c2): > 79 µM (inactive)

CCOC(=O)c1c(-c2cccs2)csc1NC(=O)C(C)(C)C
CC50 [4]: 49.8 µM (active)

Oc1nc2cc(F)ccc2c2ccc(F)cc12
IC50 (H9c2): > 79 µM (inactive)

CCN(CC)C(=O)c1ccc(-c2nnc(Nc3ccc(O)cc3)c3ccccc23)cc1
IC50 (H9c2): 14.2 µM (active)

O=C(O)[C@@H]1CCCN1Cc1cc2ccccc2c2ccccc12
AC50 (Cytochrome P450 1A2): 6.31 µM (inconclusive)

CC(C)(C)OC(=O)NCCCCCNC(=O)c1[nH]cnc1C(=O)Nc1cc(Br)ccc1F
IC50 (H9c2): > 79 µM (inactive)

CC(=O)c1ccc(-c2cnc3c(NC=O)cc(-c4cccc(C(=O)N(C)C)c4)cn23)cc1
IC50 (H9c2): 11.2 µM (active)

C/C(=N\OCC(=O)Nc1ccc(F)c(F)c1F)c1cc2ccccc2o1
IC50 [1]: > 47.1 µM (inactive)
EC50 [2]: > 53 µM (inactive)

Cc1nn(-c2ccccc2)c(C)c1/C=N/NC(=O)c1cc(C(C)(C)C)[nH]n1
IC50 (H9c2): 12.2 µM (active)

O=C(N/N=C\c1ccccn1)C1COc2cc3ccccc3cc2O1 (stereo not drawn)
IC50 (H9c2): > 79 µM (inactive)

Cc1ccc(S(=O)(=O)N(C)C[C@H]2Oc3c(NC(=O)Nc4ccc(F)cc4)cccc3C(=O)N([C@@H](C)CO)C[C@H]2C)cc1
AC50 (Paired box protein Pax-8): 11.5 µM (active)

COc1ccccc1N(CC(=O)N/N=C/c1ccc(OCC(=O)NCc2ccco2)cc1)S(=O)(=O)c1ccc(C)cc1
CC50 [4]: 42.5 µM (active)

C/C(=N\NC(N)=O)c1ccccc1Cl
CC50 [4]: 19.4 µM (active)

N=C(N/N=C\c1ccc(Br)cc1)N/N=C\c1ccc(Br)cc1
EC50 [5]: 2.39 µM (active)
EC50 (Streptococcus): 5.33 µM (active)
AC50 [3]: 3.04 µM (active)

CN(C(=O)CCCOc1ccc2[nH]c(=O)ccc2c1)C1CCCCC1 [CILOSTAMIDE]
AC50 (Cytochrome P450 2C19): inconclusive
AC50 (Cytochrome P450 1A2): 31.6 µM (inconclusive)
